The values below come from PubChem BioAssay (NCI).

Some test systems named below: NCI/ADR-RES ovarian; RPMI-8226 leukemia; MCF7 breast; SW-620 colon; MALME-3M melanoma; HS 578T breast; M14 melanoma; HOP-92 NSCLC; EKVX NSCLC.
Holding throughout (assay): inhibition of tumour cell growth, NCI panel, 48 h

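Values below derive from 48-hour exposures of cells grown in 96-well plates, with endpoints linearly interpolated between the two concentrations bracketing the appropriate inhibition level. GI50 is the concentration that inhibits growth by half. Definition used: TGI = concentration required for complete inhibition of growth.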

`C=CCOC1=C(OC(C)=O)C(C2COC(C)(C)O2)OC1=O` (centres undefined): the TGI in the assay on NCI/ADR-RES ovarian is > 100 µM; with RPMI-8226 leukemia, 61 µM; with MCF7 breast it was 32.8 µM; in the assay on SW-620 colon, 32.7 µM; in the assay on MALME-3M melanoma it was 35.1 µM; in the assay with HS 578T breast, > 100 µM. The TGI in the assay on M14 melanoma came to 53.8 µM; in the assay on HOP-92 NSCLC, 34.5 µM; in the assay with EKVX NSCLC it was 39.9 µM.
As for `O=[N+]([O-])c1ccc(N/N=C\c2ccc(O)cc2O)nc1`, the GI50 was 0.498 µM with NCI/ADR-RES ovarian; 4.21 µM in the assay on RPMI-8226 leukemia; 3.4 µM in the assay on MCF7 breast; 2.69 µM in the assay with SW-620 colon; 2.61 µM in the assay on MALME-3M melanoma; 38.3 µM with HS 578T breast. The GI50 was 1.44 µM in the assay on M14 melanoma, 5.54 µM in the assay with HOP-92 NSCLC and 3.49 µM with EKVX NSCLC. The TGI in the assay on NCI/ADR-RES ovarian is 31.2 µM; with RPMI-8226 leukemia, > 100 µM; with MCF7 breast, > 100 µM; in the assay with SW-620 colon, > 100 µM; in the assay with MALME-3M melanoma, > 100 µM; in the assay with HS 578T breast, > 100 µM. The results for the TGI in the assay on M14 melanoma, in the assay on HOP-92 NSCLC and in the assay with EKVX NSCLC were 4.85 µM, > 100 µM and > 100 µM, respectively.
Turning to `Oc1ccccc1/C=N/N1C(=S)N(c2ccccc2)C(=Nc2ccccc2)C1=Nc1ccccc1`, the TGI was 41 µM with NCI/ADR-RES ovarian; > 72.8 µM in the assay on RPMI-8226 leukemia; > 100 µM in the assay on MCF7 breast; > 54.1 µM with SW-620 colon; > 54.6 µM with MALME-3M melanoma; 37.7 µM in the assay with HS 578T breast. Further, the TGI with M14 melanoma is 28.7 µM; with HOP-92 NSCLC it was 16.3 µM; with EKVX NSCLC, 32.2 µM.
For the molecule `O=c1oc2ccc([N+](=O)[O-])cc2cc1-c1csc(-c2ccccc2)n1`, the TGI in the assay with NCI/ADR-RES ovarian, with RPMI-8226 leukemia, in the assay on MCF7 breast, with SW-620 colon, in the assay with MALME-3M melanoma and in the assay on HS 578T breast was > 100 µM throughout. Also, the TGI in the assay on M14 melanoma, in the assay with HOP-92 NSCLC and with EKVX NSCLC was > 100 µM throughout.
Turning to `O=[N+]([O-])C(=C(\Cl)NCCO)/C(Cl)=C(/Cl)Br`, the TGI amounted to 7.42 µM with NCI/ADR-RES ovarian; 6.14 µM with RPMI-8226 leukemia; 2.59 µM with MCF7 breast; 2.68 µM in the assay on SW-620 colon; 3.8 µM in the assay on MALME-3M melanoma; 28 µM with HS 578T breast. Besides, the TGI in the assay on M14 melanoma came to 3.68 µM; in the assay with HOP-92 NSCLC, 3.53 µM; in the assay on EKVX NSCLC it was 10.4 µM.
As to `O=C(Nc1ccccn1)c1cc2c(cc1Cl)Sc1nccn1S2(=O)=O`, the TGI in the assay with NCI/ADR-RES ovarian is 85.6 µM; with RPMI-8226 leukemia, > 100 µM; in the assay with MCF7 breast, > 100 µM; in the assay with SW-620 colon, > 100 µM; in the assay on MALME-3M melanoma, > 100 µM; in the assay on HS 578T breast, > 100 µM. Also, the TGI in the assay with M14 melanoma is > 100 µM; in the assay with HOP-92 NSCLC, > 100 µM; in the assay with EKVX NSCLC, 94.5 µM.
With `COC(=O)CC(c1ccccc1)C(C#N)(OP1(=O)OC(c2ccccc2)C(C)N1C)c1ccccc1` (centres undefined), the TGI in the assay on NCI/ADR-RES ovarian, with RPMI-8226 leukemia, with MCF7 breast, in the assay with SW-620 colon, in the assay on MALME-3M melanoma and with HS 578T breast was > 100 µM each time. For the same molecule, the TGI with M14 melanoma, in the assay on HOP-92 NSCLC and with EKVX NSCLC was > 100 µM in each case.
Turning to `CC1=NN(c2cccc(S(=O)(=O)O)c2)C2(C1)SCC(=O)N2c1nc2ccccc2s1` (centres undefined), the TGI with NCI/ADR-RES ovarian, in the assay on RPMI-8226 leukemia, with MCF7 breast, with SW-620 colon, in the assay on MALME-3M melanoma and in the assay with HS 578T breast was > 100 µM each time. Besides, the TGI in the assay on M14 melanoma, in the assay with HOP-92 NSCLC and in the assay with EKVX NSCLC was > 100 µM throughout.
On to `O=C1C=C(NCCc2ccc(O)cc2)C(=O)C=C1NCCc1ccc(O)cc1`, for which the TGI in the assay with NCI/ADR-RES ovarian, in the assay on RPMI-8226 leukemia, in the assay on MCF7 breast, with SW-620 colon, in the assay with MALME-3M melanoma and in the assay with HS 578T breast was > 100 µM throughout. Besides, the TGI in the assay with HOP-92 NSCLC and with EKVX NSCLC was > 100 µM in each case.
For `CCOc1ccnc2c(OC)c(C)c3nc4ccccc4nc3c12`, the TGI in the assay on NCI/ADR-RES ovarian, in the assay with RPMI-8226 leukemia, in the assay with MCF7 breast, in the assay on SW-620 colon, with MALME-3M melanoma and in the assay with HS 578T breast was > 100 µM each time. Moreover, the TGI with M14 melanoma, with HOP-92 NSCLC and in the assay with EKVX NSCLC was > 100 µM throughout.
As to `CN(C)CCNc1nc2c(c(=O)n(C)c(=O)n2C)n1C`, the TGI with NCI/ADR-RES ovarian, with RPMI-8226 leukemia, in the assay on MCF7 breast, with SW-620 colon, in the assay on MALME-3M melanoma and in the assay with HS 578T breast was > 100 µM throughout. Further, the TGI with M14 melanoma, with HOP-92 NSCLC and with EKVX NSCLC was > 100 µM throughout.
As to `CC(C)[Si](CC1=CCCCC12C(=O)N(COCC[Si](C)(C)C)c1ccccc12)(C(C)C)C(C)C` (centres undefined), the TGI with NCI/ADR-RES ovarian, in the assay with RPMI-8226 leukemia, in the assay on MCF7 breast, in the assay on SW-620 colon, in the assay with MALME-3M melanoma and in the assay on HS 578T breast was > 100 µM throughout. The TGI with M14 melanoma, in the assay on HOP-92 NSCLC and in the assay with EKVX NSCLC was > 100 µM each time.
With `CCOC(=O)C1=CN(Cc2ccccc2)C2ON=C(c3ccc(Cl)cc3)C2C1` (centres undefined), the TGI in the assay on NCI/ADR-RES ovarian is > 72.3 µM; with RPMI-8226 leukemia, > 100 µM; in the assay with MCF7 breast it was > 64.6 µM; in the assay with SW-620 colon, > 65.7 µM; in the assay with MALME-3M melanoma, > 71.8 µM; with HS 578T breast, 21.7 µM. For the same molecule, the figures for the TGI with M14 melanoma, in the assay on HOP-92 NSCLC and in the assay with EKVX NSCLC were > 66.9 µM, > 100 µM and > 65.1 µM, respectively.
For the molecule `Cc1cccc2c1CC1(Cc3c(C)cccc3C1=O)C2=O`, the TGI in the assay on NCI/ADR-RES ovarian, in the assay with RPMI-8226 leukemia, with MCF7 breast, in the assay on SW-620 colon, in the assay with MALME-3M melanoma and in the assay with HS 578T breast was > 100 µM throughout. Besides, the TGI in the assay with M14 melanoma, with HOP-92 NSCLC and in the assay with EKVX NSCLC was > 100 µM in each case.
